US10213482B2, “Methods of treating chronic inflammatory diseases” (Centre National de la Recherche Scientifique, priority 2014, dated 2019)
Square brackets hold non-standard residues; d marks the D form. Ends that are not written are not given here. Peptide text beside a SMILES is read from it. Met(O) = CS(=O)CC[C@H](N)C(=O)O; pS = N[C@@H](COP(=O)(O)O)C(=O)O

Experiments:
[1] = Stability of the peptides at 37° C. in 10% mannitol (HPLC peak area); assay type: physicochemical
Method: The stability of the peptide SEQ ID NO: 1 in which the serine at position 10 is phosphorylated and the methionine at position 4 is oxydized (P140(MO)), and the peptide SEQ ID NO: 1 in which the serine at position 10 is phosphorylated (P140) was measured at 37° C., in a solution of 10% (v/v) mannitol. For each peptide, 3 concentrations have been tested: 200, 100 and 50 μg/mL.
At the indicated time, the integrity of P140 and P140(MO) peptides was measured in saline by high-performance liquid chromatography from the area of the peak corresponding to the intact peptide.
Stability is measured by using the HPLC peak surface.

Balb/c mice = assay: 15-day ovalbumin-induced airway hypereosinophilia model, BAL cell counts; assay type: in vivo, mouse; conditions: i.n. or i.v., control mice challenged with saline; no pro-inflammatory effect
Method: The anti-inflammatory effect of the P140 phosphopeptide was evaluated when administered locally (intranasally) or systemically (intravenously) in a 15-day model of hypereosinophilic airway inflammation in mice.
The P140 phosphopeptide was solubilized in sterile water (Braun) and 10× concentrate sterile saline was added to adjust osmolarity to 300 mosm. Osmolarity was controlled with a micro osmometer (Loser, type 15) and validated (302 mosm).
The P140 phosphopeptide was used in vivo at the dose of 4 mg/kg by intranasal (i.n.) and intravenous (i.v.) routes. Control animals received equivalent volumes (1 ml/kg for i.n. and 2 ml/kg for i.v.) of saline (Table 6).
Nine-week-old male Balb/c mice were sensitized by intraperitoneal (i.p.) injections of a mixture containing 50 μg OVA (Sigma-Aldrich) and 2 mg alum (Sigma-Aldrich) in 0.1 ml saline. Mice were challenged by i.n. administration of 25 μl of OVA on day 5, then 25 μl of OVA and/or saline on day 12, 13 and 14. […]
BAL was performed twenty-four hours after LPS challenge as described (Daubeuf, F. and Frossard, N. 2012. Performing Bronchoalveolar Lavage in the Mouse. Curr Protoc Mouse Biol 2:167-175). […] The cell pellet was suspended in 500 μl of 0.9% NaCl and used for total cell counts evaluated on a Muse® Cell Analyser. Differential cell counts were assessed by flow cytometry (LSRII® cytometer, BD Bioscience). […]

MRL/lpr mice [2] = assay: Proteinuria analysis in MRL/lpr mice (Albustix); assay type: in vivo, mouse; conditions: compared to the untreated mice
Method: Proteinuria of the above mice was measured in fresh urine using Albustix (Bayer Diagnostics) and was semi-quantitatively estimated according to a […] recommended by the manufacturer (no proteinuria=0; traces=1; 1+=2; 2+=3; 3+=4; 4+=5).
Statistical tests were performed using GraphPad Prism version 5.0. The two-way ANOVA test was used to analyze statistical significance of proteinuria differences between control and peptide-treated groups of mice. Survival of control and P140 analogue-treated female MRL/lpr mice was analyzed by the Kaplan-Meier method, and the significance of differences was determined by the log-rank test. For the other variables, statistical significance was assessed using the Student's t-test. p values less than 0.05 were considered significant.

Recombinant bovine HSC70 = target: T1, Recombinant bovine HSC70 (Bos taurus, UniProt P19120); assay: BIAcore binding of P140 peptides to HSC70
T1 construct: purchased Stressgen
Method: BIAcore 3000 system (Biacore AB) was used to evaluate the binding of P140 peptides to HSC70 protein (Page et al., 2009, and 2011). Sensor chip CMS, surfactant P20, amine coupling kit containing N-hydroxysuccinimide (NHS) and N-ethyl-N′-dimethylaminopropyl carbodiimide (EDC), 2-(2-pyridinyldithio)ethaneamine (PDEA) and ethanolamine were from Biacore AB. Biosensor assays were performed with HBS-EP buffer as running buffer (10 mM HEPES, 150 mM NaCl, 3 mM EDTA, 0.005% surfactant P20, pH 7.4). The compounds were diluted in the running buffer. The sensor chip surface was regenerated after each experiment by injecting 10 μL of 10 mM HCl. Recombinant bovine HSC70 (Stressgen) was immobilized on flow cells of a CMS sensor chip through its thiol groups using 35 μL PDEA in 50 mM borate buffer, pH 8.3 on the NHS/EDC-activated matrix. Then, 35 μL of HSC70 (100 μg/mL in formate buffer, pH 4.3) were injected until a response of 13,000 response units (RU) corresponding to 13 ng/mm^2 of HSC70 was immobilized. Twenty μL of a 50 mM cysteine/1 M NaCl solution was used to saturate unoccupied sites on the chip. The direct binding measurement of P140 peptides to HSC70 was carried out at 25° C. with a constant flow rate of 20 μL/min. […] The kinetic parameters were calculated using the BIAeval 3.1 software on a personal computer. […]

MRL/lpr mice [3] = assay: Cellularity analysis of peripheral blood in MRL/lpr mice; assay type: in vivo, mouse; conditions: 100 μg/100 μL, 5 days after unique injection
Method: MRL/lpr mice were injected with 100 μg/100 μL of P140 or P140(MO) and cellularity (preipheral blood) was studied 5 days after this unique injection. The count includes all the leucocytes. In view of the low number of tested mice, a non parametric statistical test has been realised Mann-Whitney).

mice = conditions: Monneaux et al., 2003; cited from earlier work

T1 sequence (P19120 whole entry): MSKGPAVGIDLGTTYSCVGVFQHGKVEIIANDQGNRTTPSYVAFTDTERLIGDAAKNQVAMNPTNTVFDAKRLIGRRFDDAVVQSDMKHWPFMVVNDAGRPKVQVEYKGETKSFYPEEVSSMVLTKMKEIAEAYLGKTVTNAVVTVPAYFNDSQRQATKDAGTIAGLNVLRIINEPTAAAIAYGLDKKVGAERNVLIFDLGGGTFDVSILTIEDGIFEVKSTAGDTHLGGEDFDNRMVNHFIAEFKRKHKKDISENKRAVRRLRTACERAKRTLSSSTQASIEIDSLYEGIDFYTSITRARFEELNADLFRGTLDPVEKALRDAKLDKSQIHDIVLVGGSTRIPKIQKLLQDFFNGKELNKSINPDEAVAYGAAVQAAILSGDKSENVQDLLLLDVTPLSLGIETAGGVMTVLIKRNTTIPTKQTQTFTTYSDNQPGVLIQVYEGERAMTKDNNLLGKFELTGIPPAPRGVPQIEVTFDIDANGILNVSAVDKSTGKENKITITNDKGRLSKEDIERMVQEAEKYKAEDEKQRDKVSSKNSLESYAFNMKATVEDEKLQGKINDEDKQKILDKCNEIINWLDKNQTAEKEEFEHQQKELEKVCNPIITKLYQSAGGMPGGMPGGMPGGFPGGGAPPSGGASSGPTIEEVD

| Molecule | Stability (%) Linear equation: coefficient of x (days) ([1]; 50 μg/mL) | Stability (%) Linear equation: constant term ([1]; 50 μg/mL) | Stability (%) Linear equation: coefficient of x (days) ([1]; 100 μg/mL) | Stability (%) Linear equation: constant term ([1]; 100 μg/mL) | Stability (%) Linear equation: coefficient of x (days) ([1]; 200 μg/mL) | Stability (%) Linear equation: constant term ([1]; 200 μg/mL) | Number of cells recovered in BAL fluid as compared to vehicle (Balb/c mice) | Proteinuria score over time (MRL/lpr mice [2]) | Affinity for HSC70 protein, comparison of oxidized and non-oxidized peptide (Recombinant bovine HSC70) | Peripheral hypercellularity (leucocytes in blood) (MRL/lpr mice [3]) | Protection against disease development (mice) |
| --- | --- | --- | --- | --- | --- | --- | --- | --- | --- | --- | --- |
| CC[C@H](C)[C@H](NC(=O)[C@H](Cc1ccccc1)NC(=O)[C@H](C)NC(=O)[C@H](Cc1ccc(O)cc1)NC(=O)CNC(=O)[C@H](CCCNC(=N)N)NC(=O)[C@@H]1CCCN1C(=O)[C@H](CCCCN)NC(=O)CNC(=O)[C@H](COP(=O)(O)O)NC(=O)[C@H](CCCNC(=N)N)NC(=O)[C@H](CCCCN)NC(=O)[C@H](CO)NC(=O)[C@H](Cc1ccc(O)cc1)NC(=O)[C@@H](NC(=O)[C@H](CCSC)NC(=O)[C@H](Cc1c[nH]cn1)NC(=O)[C@@H](NC(=O)[C@@H](N)CCCNC(=N)N)[C@@H](C)CC)C(C)C)C(=O)N[C@@H](CCC(=O)O)C(=O)N[C@@H](Cc1ccc(O)cc1)C(=O)O [Compound P140] (H-RIHMVYSKR[pS]GKPRGYAFIEY-OH) | y = −0.099x + | 98.299 | y = −0.0612x + | 99.25 | y = −0.0238x + | 99.535 | little effect per se | – | – | – | – |
| CC[C@H](C)[C@H](NC(=O)[C@H](Cc1ccccc1)NC(=O)[C@H](C)NC(=O)[C@H](Cc1ccc(O)cc1)NC(=O)CNC(=O)[C@H](CCCNC(=N)N)NC(=O)[C@@H]1CCCN1C(=O)[C@H](CCCCN)NC(=O)CNC(=O)[C@H](COP(=O)(O)O)NC(=O)[C@H](CCCNC(=N)N)NC(=O)[C@H](CCCCN)NC(=O)[C@H](CO)NC(=O)[C@H](Cc1ccc(O)cc1)NC(=O)[C@@H](NC(=O)[C@H](CC[S+](C)[O-])NC(=O)[C@H](Cc1c[nH]cn1)NC(=O)[C@@H](NC(=O)[C@@H](N)CCCNC(=N)N)[C@@H](C)CC)C(C)C)C(=O)N[C@@H](CCC(=O)O)C(=O)N[C@@H](Cc1ccc(O)cc1)C(=O)O (stereo partly shown) [P140(MO), RIHM(O)VYSKRS(PO3H2)GKPRGYAFIEY] (H-RIH[Met(O)]VYSKR[pS]GKPRGYAFIEY-OH) | y = −0.0064x + | 99.677 | y = −0.0064x + | 100.11 | – | y = 100 | – | less important and appears lately | not statistically different | decrease peripheral hypercellularity | – |
| non-phosphorylated peptide: non-phosphorylated form of P140, not protective against disease development in mice (RIHMVYSKRSGKPRGYAFIEY; not fully specified; UniProt P08621 131-151, looked up, fragment) | – | – | – | – | – | – | – | – | – | – | not protective |
